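Protocol summary: plate cells (96-well), add compound at 5 concentrations, incubate 48 h, interpolate endpoints linearly. The concentration for full growth arrest is given as TGI.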
Columns and labels:
Experiment in all cases: inhibition of tumour cell growth, NCI panel, 48 h
786-0 renal = system: 786-0 renal
A498 renal = system: A498 renal
A549 NSCLC = system: A549 NSCLC
ACHN renal = system: ACHN renal
CAKI-1 renal = system: CAKI-1 renal
CCRF-CEM leukemia = system: CCRF-CEM leukemia
COLO 205 colon = system: COLO 205 colon
DLD-1 colon = system: DLD-1 colon
DMS 114 small cell lung = system: DMS 114 small cell lung
DMS 273 small cell lung = system: DMS 273 small cell lung
EKVX NSCLC = system: EKVX NSCLC
HCC-2998 colon = system: HCC-2998 colon
HCT-116 colon = system: HCT-116 colon
HCT-15 colon = system: HCT-15 colon
HL-60(TB) leukemia = system: HL-60(TB) leukemia
HOP-62 NSCLC = system: HOP-62 NSCLC
HOP-92 NSCLC = system: HOP-92 NSCLC
HT29 colon = system: HT29 colon
IGROV1 ovarian = system: IGROV1 ovarian
K-562 leukemia = system: K-562 leukemia
KM12 colon = system: KM12 colon
KM20L2 colon = system: KM20L2 colon
LOX IMVI melanoma = system: LOX IMVI melanoma
LXFL 529 NSCLC = system: LXFL 529 NSCLC
M14 melanoma = system: M14 melanoma
M19-MEL melanoma = system: M19-MEL melanoma
MALME-3M melanoma = system: MALME-3M melanoma
MOLT-4 leukemia = system: MOLT-4 leukemia
NCI-H226 lung = system: NCI-H226 lung
NCI-H23 lung = system: NCI-H23 lung
NCI-H460 lung = system: NCI-H460 lung
NCI-H522 lung = system: NCI-H522 lung
OVCAR-3 ovarian = system: OVCAR-3 ovarian
OVCAR-4 ovarian = system: OVCAR-4 ovarian
OVCAR-5 ovarian = system: OVCAR-5 ovarian
OVCAR-8 ovarian = system: OVCAR-8 ovarian
RPMI-8226 leukemia = system: RPMI-8226 leukemia
RXF 393 renal = system: RXF 393 renal
RXF-631 renal = system: RXF-631 renal
SF-268 CNS = system: SF-268 CNS
SF-295 CNS = system: SF-295 CNS
SF-539 CNS = system: SF-539 CNS
SK-MEL-2 melanoma = system: SK-MEL-2 melanoma
SK-MEL-28 melanoma = system: SK-MEL-28 melanoma
SK-MEL-5 melanoma = system: SK-MEL-5 melanoma
SK-OV-3 ovarian = system: SK-OV-3 ovarian
SN12C renal = system: SN12C renal
SNB-19 CNS = system: SNB-19 CNS
SNB-75 CNS = system: SNB-75 CNS
SNB-78 CNS = system: SNB-78 CNS
SW-620 colon = system: SW-620 colon
TK-10 renal = system: TK-10 renal
U251 CNS = system: U251 CNS
UACC-257 melanoma = system: UACC-257 melanoma
UACC-62 melanoma = system: UACC-62 melanoma
UO-31 renal = system: UO-31 renal
XF 498 CNS = system: XF 498 CNS

CCc1c(C)[nH]c2c1/C(=N/N=C1\CCCc3[nH]c(C)c(CC)c31)CCC2
TGI (786-0 renal): > 100 µM
TGI (A498 renal): 75 µM
TGI (A549 NSCLC): > 100 µM
TGI (ACHN renal): 69.2 µM
TGI (CAKI-1 renal): > 100 µM
TGI (CCRF-CEM leukemia): 76.4 µM
TGI (COLO 205 colon): 41.6 µM
TGI (DLD-1 colon): > 100 µM
TGI (DMS 114 small cell lung): 34.1 µM
TGI (DMS 273 small cell lung): 36.7 µM
TGI (EKVX NSCLC): > 100 µM
TGI (HCC-2998 colon): > 100 µM
TGI (HCT-116 colon): 50.5 µM
TGI (HCT-15 colon): 52.5 µM
TGI (HL-60(TB) leukemia): 36.4 µM
TGI (HOP-62 NSCLC): > 100 µM
TGI (HOP-92 NSCLC): 51.5 µM
TGI (HT29 colon): 81.3 µM
TGI (IGROV1 ovarian): 83.6 µM
TGI (K-562 leukemia): > 100 µM
TGI (KM12 colon): 31.3 µM
TGI (KM20L2 colon): > 100 µM
TGI (LOX IMVI melanoma): 54.6 µM
TGI (LXFL 529 NSCLC): 30.2 µM
TGI (M14 melanoma): 41.2 µM
TGI (M19-MEL melanoma): 48.3 µM
TGI (MALME-3M melanoma): > 100 µM
TGI (MOLT-4 leukemia): 39.4 µM
TGI (NCI-H226 lung): 39.7 µM
TGI (NCI-H23 lung): 62.7 µM
TGI (NCI-H460 lung): 43.2 µM
TGI (NCI-H522 lung): 33.1 µM
TGI (OVCAR-3 ovarian): 39.7 µM
TGI (OVCAR-4 ovarian): 52 µM
TGI (OVCAR-5 ovarian): > 100 µM
TGI (OVCAR-8 ovarian): 78.2 µM
TGI (RPMI-8226 leukemia): 33.9 µM
TGI (RXF 393 renal): 70.5 µM
TGI (RXF-631 renal): > 100 µM
TGI (SF-268 CNS): 61.9 µM
TGI (SF-295 CNS): 46.6 µM
TGI (SF-539 CNS): 81.5 µM
TGI (SK-MEL-2 melanoma): > 100 µM
TGI (SK-MEL-28 melanoma): 35.9 µM
TGI (SK-MEL-5 melanoma): 27.6 µM
TGI (SK-OV-3 ovarian): 78.4 µM
TGI (SN12C renal): > 100 µM
TGI (SNB-19 CNS): > 100 µM
TGI (SNB-75 CNS): 50.1 µM
TGI (SNB-78 CNS): 85.8 µM
TGI (SW-620 colon): 78 µM
TGI (TK-10 renal): > 100 µM
TGI (U251 CNS): 35.4 µM
TGI (UACC-257 melanoma): 31.9 µM
TGI (UACC-62 melanoma): 48.8 µM
TGI (UO-31 renal): 39.5 µM
TGI (XF 498 CNS): 34.4 µM

COC(=O)CCC1(NS(=O)(=O)c2ccc(C)cc2)CCC(C(C)(C)C)CC1 (configuration not stated)
TGI (786-0 renal): 29 µM
TGI (A498 renal): 28.8 µM
TGI (A549 NSCLC): 73.4 µM
TGI (CAKI-1 renal): 27.3 µM
TGI (CCRF-CEM leukemia): 37 µM
TGI (COLO 205 colon): 26.8 µM
TGI (DLD-1 colon): 65.9 µM
TGI (DMS 114 small cell lung): 20.3 µM
TGI (DMS 273 small cell lung): 31.2 µM
TGI (HCC-2998 colon): 30.3 µM
TGI (HCT-116 colon): 22.2 µM
TGI (HL-60(TB) leukemia): 11.8 µM
TGI (HOP-62 NSCLC): 36.1 µM
TGI (HOP-92 NSCLC): 27.1 µM
TGI (HT29 colon): 31.8 µM
TGI (IGROV1 ovarian): 41.7 µM
TGI (K-562 leukemia): 33.7 µM
TGI (KM12 colon): 44.7 µM
TGI (LOX IMVI melanoma): 38 µM
TGI (LXFL 529 NSCLC): 68.3 µM
TGI (M14 melanoma): 33.7 µM
TGI (M19-MEL melanoma): 25.2 µM
TGI (MALME-3M melanoma): 35.4 µM
TGI (MOLT-4 leukemia): 25.2 µM
TGI (NCI-H23 lung): 29.2 µM
TGI (NCI-H460 lung): 92 µM
TGI (NCI-H522 lung): 21.3 µM
TGI (OVCAR-3 ovarian): 23.2 µM
TGI (OVCAR-4 ovarian): 32.1 µM
TGI (OVCAR-5 ovarian): 32.8 µM
TGI (OVCAR-8 ovarian): 40.7 µM
TGI (RPMI-8226 leukemia): 21.4 µM
TGI (RXF-631 renal): 45.2 µM
TGI (SF-295 CNS): 26.5 µM
TGI (SF-539 CNS): 26.2 µM
TGI (SK-MEL-2 melanoma): 33.5 µM
TGI (SK-MEL-28 melanoma): 25.3 µM
TGI (SK-MEL-5 melanoma): 19.3 µM
TGI (SK-OV-3 ovarian): > 100 µM
TGI (SN12C renal): 28.5 µM
TGI (SNB-19 CNS): 35.6 µM
TGI (SNB-75 CNS): 41.2 µM
TGI (SNB-78 CNS): 67.2 µM
TGI (SW-620 colon): 37.3 µM
TGI (TK-10 renal): 65.4 µM
TGI (U251 CNS): 29 µM
TGI (UACC-257 melanoma): 24.7 µM
TGI (UACC-62 melanoma): 26.4 µM
TGI (UO-31 renal): 16 µM
TGI (XF 498 CNS): 30.7 µM

From PubChem BioAssay (NCI)
